“Also recorded” adds a separate entry of the source.
Columns and labels:
LRP1 = type: cell-based, human
LRPAP1 [1] = type: cell-based, human
LRPAP1 [2] = type: cell-based, human; remark: listed apart in the source
IFNAR1 [3] = assay: IFNAR1 protein level, immunoblot, HEK-293T cells; type: cell-based, human
IFNAR1 [4] = assay: LRPAP1 stimulated mouse brain ex vivo, membrane IFNAR1 immunoblot; parameters: species or system C57BL/6 mouse; conditions: 200 nM, ACSF, 1 h
Protocol: (§1) Tissues were washed twice with PBS and made into homogenate by 2 ml grinder. Membrane proteins were separated from cytosol protein extraction by using the protocol of membrane protein extraction kit (89842, Thermo).

HCoV-OC43 = HCoV-OC43 infection of RD cells (viral RNA, TCID50, CPE); conditions: pre-treated 1 h (or siRNA 24 h), MOI 1, 72 h
IFNAR1 [5] = assay: IFNAR1 endocytosis, EEA1 immunofluorescence, HEK-293T cells; type: cell-based, human; conditions: 200 nM, 1 h
Protocol: Cellular expression of IFNAR1, viral protein VP1 and LRPAP1 at HEK-293T cells with and without the stimulation of EV71, the recombinant LRPAP1, and overexpression of LRPAP1 or 2A, were examined by the following protocol. Briefly, HEK-293T cells were washed twice with PBS and fixed with 4% paraformaldehyde for 20 min. Afterwards, cells were incubated with blocking buffer (10% (v/v) FBS, 1% (v/v) BSA, and 0.1% (v/v) Triton in PBS) for 2 h. Cells were then incubated with specific antibodies. […] After washing with PBST (PBS + 0.1% Tween-20) for 3 times, cells were labeled with Alexa Fluor 488 (green), or Alexa Fluor 594 (red) conjugated secondary antibody (dilution of 1:1000) (Life Technologies) for 1 h at 4 °C with shaking. After three times washing with PBST (PBS + 0.1% Tween-20), cells were followed by nuclei staining with DAPI (0.5 μg/ml) for 5 min at room temperature. Finally, cells were mounted with Prolong Gold Antifade Reagent on slides. Images were taken by Carl Zeiss LSM 880 confocal microscope using 63× oil objective and analyzed by ZEN software.

EV71 [6] = assay: EV71 infection of RD cells (viral RNA, titer, viral protein, CPE)
IFNAR1 [7] = assay: IFNAR1 and LRPAP1 in membrane and cytosol fractions, HEK-293T cells; type: cell-based, human; conditions: 200 nM, 1 min to 10 min
Protocol: Then proteins were subjected to Western blotting. […] Hes1 (Abcam, ab71559).
as §1

[8] = test system: extracellular domain of IFNAR1; assay: Pull-down / co-immunoprecipitation of LRPAP1 with IFNAR1; type: binding; conditions: Residues 1–436
Protocol: The interaction of LRPAP1, LRP1 and IFNAR1 was examined by immunoprecipitation using a protocol described as followed. HEK293T cells were cultured at around 90% confluence in a 100 mm tissue culture dish. Cells were washed with 10 ml of PBS and harvested in 0.5 ml of ice-cold lysis buffer ([…], pH 7.4, 1% SDS, 1% NP-40) and Protease Cocktail (Roche) and PhoSTOP (Roche). The total extract was pre-cleared with 10 μg normal rabbit IgG (Cell signaling, 2729 S) and 20 μl of protein A/G plus-agarose (Santa Cruz Biotechnology) at 4 °C on a rotor for 1 h. After gently removed protein A/G agarose beads by centrifugation at 500 rcf for 2 min, 0.2 mg of total extract was immunoprecipitated with the indicated antibodies overnight at 4 °C on a rotor. Approximately 20 μl of protein A/G plus-agarose (Santa Cruz Biotechnology) was added at 4 °C for one hour. Then, the beads were washed three times with washing buffer (lysis buffer contained 0.1% NP-40). The pellet was suspended with 40 μl PBS and 10 μl of 5× SDS-PAGE loading buffer and the samples were boiled for 10 min.
The interaction of LRPAP1, LRP1 and IFNAR1 was examined by immunoprecipitation using a protocol described as followed. HEK293T cells were cultured at around 90% confluence in a 100 mm tissue culture dish. […]

IFNAR1 [9] = assay: IFNAR1 protein level, immunoblot / immunofluorescence, RD cells; type: cell-based; conditions: RD cells, 200 nM, 1 h
EV71 [10] = assay: EV71 entry and uncoating, HEK-293T cells; type: cell-based; conditions: pre-treated on ice 1 h, EV71 MOI 50, within 1 h
IFNAR1 [11] = assay: Flow cytometry, cell surface IFNAR1 on 4T1 cells; type: cell-based, murine; conditions: live 4T1 cells, 200 nM
Protocol: (§2) The surface IFNAR1 was monitored by flow cytometry as previous described.[60] Briefly, murine breast cancer cells (4T1) were stained with APC-conjugated IFNAR1 (Biolegend #127314, 1:100) on ice for 30 min. […] Fluorescence-activated cells were then sorted and analyzed by Beckman Coulter CytoFLEX S Flow cytometer ([…]). The result was analyzed by FlowJo (version 10.5.3).
as §2, with “described^63.” for “described.[60]”

IFNAR1 [12] = assay: IFNAR1 phosphorylation immunoblot, HEK-293T cells; type: cell-based, human; conditions: extracellular rLRPAP1, 1 h
EV71 [13] = assay: EV71 infection of newborn C57BL/6 mice; type: in vivo
Protocol: The C57BL/6 mice were purchased and were bred in the City University of Hong Kong. All animal experiment protocols were approved by the Ethics Committee of City University of Hong Kong with the license from Department of Health, Hong Kong (18-69 in DH/SHS/8/2/5 Pt.3). The studies were performed in accordance with the approved protocol. […] The neurological status and behavior of each mouse was measured every day. On day 7, mice were sacrificed, and the intestine and blood were collected for viral testing.

IFNAR1 [14] = assay: Effect of lysosome / proteasome inhibitors on LRPAP1-induced IFNAR1 reduction, HEK-293T cells; conditions: 4 h, MA 20 mM; for effect on LRPAP1-induced IFNAR1 reduction: bafilomycin 1 μM, MG132 40 μM, leupeptin 50 μM

Compound: SARS-CoV-2 3CL^pro: SARS-CoV-2 main protease, transfected pCMV-SARS-CoV-2-3CL
- LRP1 protein level (LRP1): decreased protein level
- LRPAP1 expression (LRPAP1 [1]): increased LRPAP1 expression
- extracellular LRPAP1 level (LRPAP1 [2]): extracellular LRPAP1 increase
- IFNAR1 level (IFNAR1 [3]): decreased IFNAR1 level; also recorded: expression of IFNAR1 decreased

Compound: rLRPAP1: recombinant LRPAP1 from pQTEV-LRPAP1 expressed in E. coli
- membrane IFNAR1 in mouse brain (IFNAR1 [4]): significantly lower
- HCoV-OC43 intracellular RNA level (HCoV-OC43): increased significantly
- HCoV-OC43 viral titer (TCID50) (HCoV-OC43): increased significantly
- IFNAR1 endocytosis (EEA1 level) (IFNAR1 [5]): increased level of early endosome marker (EEA1)
- EV71 infection (EV71 [6]; RD cells, 9 h, plasmid, recombinant protein or peptide pre-treatment, viral RNA / titer): significantly promoted EV71 infection
- EV71 induced CPE (EV71 [6]; antibody added 3 h post infection (MOI 10, 6 h), rLRPAP1 200 nM pre-treatment 1 h): significantly promoted EV71 infection and EV71-induced CPE
- IFNAR1 level in membrane / cytosol fractions (IFNAR1 [7]): IFNAR1 consistently decreased with time
- rLRPAP1 enrichment in membrane fractions (IFNAR1 [7]): gradually enriched in the membrane fractions
- direct binding to IFNAR1 extracellular domain (pull-down) [8]: directly bound with the extracellular domain of IFNAR1
- IFNAR1 in the cell membrane (immunofluorescence) (IFNAR1 [9]): sharply decreased in the cell membrane
- EV71 entry and uncoating rate (EV71 [10]): promoted EV71 entry and uncoating rate within 1 h
- cell surface IFNAR1 (IFNAR1 [11]): significantly reduced cell surface IFNAR1
- phosphorylated IFNAR1 (IFNAR1 [12]): promoted in an extracellular rLRPAP1 dose-dependent manner
- survival rate (EV71 [13]; co-injected EV71 and rLRPAP1, 7 days): 75%
- mice with severe neurological deficits (EV71 [13]; co-injected EV71 and rLRPAP1, after two injections (Day 3)): 50%
- physical condition of mice (EV71 [13]; co-injected EV71 and rLRPAP1, i.p. twice per week): severe physical disharmony
- EV71 infection and disease in mice (EV71 [13]; i.p. EV71 (2*10^8 PFU) + rLRPAP1 (200 nM) twice per week): potently enhanced EV71 infection and exacerbated the disease in newborn C57BL/6 mice
- IFNAR1 level on rLRPAP1 treatment (IFNAR1 [3]; 50 nM, 1 h): marginal detectable level
- IFNAR1 level on rLRPAP1 treatment (IFNAR1 [3]; 200 nM, 1 h): undetectable level
- IFNAR1 level on rLRPAP1 treatment (IFNAR1 [3]; within 15 min, dose-dependent): rapidly decreased within 15 min in a rLRPAP1 dose-dependent manner

Compound: CN [methylamine]
- effect on LRPAP1-induced IFNAR1 reduction (IFNAR1 [14]): prohibited by lysosome inhibitors
- protection of IFNAR1 from degradation (IFNAR1 [14]; ubiquitin, LRPAP1, IFNAR1 expressed): IFNAR1 was protected from degradation

Compound: CO/C1=C\C(C)=C\[C@@H](C)[C@@H](O)[C@@H](C)C/C(C)=C/C=C/[C@H](OC)[C@@H]([C@@H](C)[C@@H](O)[C@H](C)[C@@]2(O)C[C@@H](O)[C@H](C)[C@@H](C(C)C)O2)OC1=O [bafilomycin]
- effect on LRPAP1-induced IFNAR1 reduction (IFNAR1 [14]): prohibited by lysosome inhibitors

Source: publication PMC10518340, “Secreted LRPAP1 binds and triggers IFNAR1 degradation to facilitate virus evasion from cellular innate immunity” (Signal Transduction and Targeted Therapy, 2023)
